Data on 12 compounds can be found in US20260022142A1, “MACROCYCLIC IMMUNOMODULATORS” (Bristol-Myers Squibb Company, priority 2022, published 2026).

Numbered stars: 1 amine (or outer) side, 2 acyl side, 3 side chain; on linkers, the order of the positions; unused ones are H or OH. Bridge positions count the residues as written; N and C are the ends. Square brackets hold non-standard residues; d marks the D form. Peptide text beside a SMILES is read from it. * marks the point of attachment. ξ: configuration not given here. Phe(3-CF3) = N[C@@H](Cc1cccc(C(F)(F)F)c1)C(=O)O; Tyr(3,5-F2) = N[C@@H](Cc1cc(F)c(O)c(F)c1)C(=O)O; Phe(4-COOH) = N[C@@H](Cc1ccc(C(=O)O)cc1)C(=O)O; Bip = N[C@@H](Cc1ccc(-c2ccccc2)cc1)C(=O)O; NH(CH2)14COOH = O=C(O)CCCCCCCCCCCCCCN*; Phe(3-Me) = Cc1cccc(C[C@H](N)C(=O)O)c1; γGlu = O=C(O)[C@H](CCC(=O)[*:2])N[*:1]; NH(CH2)12COOH = O=C(O)CCCCCCCCCCCCN*; Val(3-OH) = CC(C)(O)[C@H](N)C(=O)O; Aha = [N-]=[N+]=NCC[C@H](N)C(=O)O; 4Pal = N[C@@H](Cc1ccncc1)C(=O)O; 2Thi = N[C@@H](Cc1cccs1)C(=O)O; 3Thi = N[C@@H](Cc1ccsc1)C(=O)O; Cha = N[C@@H](CC1CCCCC1)C(=O)O; Thr(3ξ) = CC(O)[C@H](N)C(=O)O; Carboxymethyl = O=C(O)C*; Orn = NCCC[C@H](N)C(=O)O; Aun = NCCCCCCCCCCC(=O)O; Dab = NCC[C@H](N)C(=O)O; Dap = NC[C@H](N)C(=O)O; AEEA = NCCOCCOCC(=O)O

T1 sequence (Q15116 25-288): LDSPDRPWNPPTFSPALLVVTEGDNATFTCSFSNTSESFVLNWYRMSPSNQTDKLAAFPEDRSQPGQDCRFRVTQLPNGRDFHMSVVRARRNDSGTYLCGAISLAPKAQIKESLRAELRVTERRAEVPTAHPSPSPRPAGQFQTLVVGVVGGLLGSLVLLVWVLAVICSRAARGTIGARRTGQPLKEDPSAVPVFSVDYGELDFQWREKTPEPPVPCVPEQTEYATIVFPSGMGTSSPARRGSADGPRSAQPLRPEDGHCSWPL

This experiment addresses T1, PD-1/PD-L1 interaction (PE-labeled human PD-L1-Ig binding to Jurkat cell line over-expressing human PD-1) (Homo sapiens, UniProt Q15116).
T1 construct: expressed in transfected cells; host or cells: Jurkat
Kind of experiment: Jurkat-PD-1 Cell Binding High-Content Screening Assay (CBA). The settings on record: Jurkat cell line over-expressing human PD-1; PE-labeled PD-L1-Ig 20 nM final; read-out: Jurkat hPD1-PDL1 IC50. It is filed as cell-based. The essentials:
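Binding of fluorescent PD-L1-Ig (20 nM final) to Jurkat-PD-1 cells was measured by automated imaging after 1 h, following a 2 h compound pre-treatment at 37° C.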
Take `COc1ccc(C[C@@H]2NC(=O)[C@H](Cc3cccc(C)c3)NC(=O)[C@H](CC(=O)O)NC(=O)[C@H](Cc3ccc(OCC(=O)O)cc3)NC(=O)[C@H](Cc3ccncc3)NC(=O)CSC[C@@H](C(=O)N[C@@H](CCN)C(=O)N[C@@H](CCN=[N+]=[N-])C(=O)NCCCCCCCCCCC(=O)O)NC(=O)[C@H](CO)NC(=O)[C@H](C(C)(C)O)NC(=O)[C@H](CC3CCCCC3)NC(=O)[C@H](CCN)NC(=O)[C@@H](CC(C)C)NC(=O)[C@H](CCCN)NC(=O)[C@H](Cc3ccc(OCC(=O)O)cc3)NC(=O)[C@H](Cc3ccc(-c4ccccc4)cc3)NC2=O)cc1` [Compound 1280] ({CH2CO}-[4Pal]Y(Carboxymethyl)D[Phe(3-Me)]Y(Me)[Bip]Y(Carboxymethyl)[Orn][dL][Dab][Cha][Val(3-OH)]SC[Dab][Aha][Aun]-OH; thioether N-14): the half-maximal inhibitory concentration (IC50) is 243 nM.
For `CC(C)C[C@H]1NC(=O)[C@H](CCCN)NC(=O)[C@H](Cc2ccc(C(=O)O)cc2)NC(=O)[C@H](Cc2ccc(-c3ccccc3)cc2)NC(=O)[C@H](Cc2ccc(C(=O)O)cc2)NC(=O)[C@H](Cc2cccc(C(F)(F)F)c2)NC(=O)[C@H](CC(=O)O)NC(=O)[C@H](Cc2ccc(OCC(=O)O)cc2)NC(=O)[C@H](C)NC(=O)CSC[C@@H](C(=O)N[C@@H](CCN)C(=O)NCCCCCCCCCCCCCCC(=O)O)NC(=O)[C@H](Cc2c[nH]cn2)NC(=O)[C@H](C(C)(C)O)NC(=O)[C@H](CC2CCCCC2)NC(=O)[C@H](CCN)NC1=O` [Compound 2922] ({CH2CO}-AY(Carboxymethyl)D[Phe(3-CF3)][Phe(4-COOH)][Bip][Phe(4-COOH)][Orn][dL][Dab][Cha][Val(3-OH)]HC[Dab]-{NH(CH2)14COOH}; thioether N-14) the value was 423 nM; for `CC(C)C[C@@H]1NC(=O)[C@H](Cc2c[nH]c3ccccc23)NC(=O)[C@H](CC(=O)O)NC(=O)[C@H](Cc2ccc(OCC(=O)O)cc2)NC(=O)[C@H](CN)NC(=O)CSC[C@@H](C(=O)N[C@@H](CCN)C(=O)NCCCCCCCCCCC(=O)O)NC(=O)[C@H](CCCN)NC(=O)[C@H](C(C)O)NC(=O)[C@H](CC2CCCCC2)NC(=O)[C@H](CCN)NC(=O)[C@@H](CC(C)C)NC(=O)[C@H](CCCN)NC(=O)[C@H](C(C)C)NC(=O)[C@H](Cc2ccc(-c3ccccc3)cc2)NC1=O` (stereo partly drawn) [Compound 3687] ({CH2CO}-[Dap]Y(Carboxymethyl)DWL[Bip]V[Orn][dL][Dab][Cha][Thr(3ξ)][Orn]C[Dab][Aun]-OH; thioether N-14), 19.9 nM.
For the compound `Cc1cccc(C[C@@H]2NC(=O)[C@H](CC(=O)O)NC(=O)[C@H](Cc3ccc(OCC(=O)O)cc3)NC(=O)[C@H](CN)NC(=O)CSC[C@@H](C(=O)N[C@@H](CCCCN)C(=O)NCCCCCCCCCCC(=O)O)NC(=O)[C@@H](CO)NC(=O)[C@H](C(C)C)NC(=O)[C@H](CC(C)C)NC(=O)[C@H](CCN)NC(=O)[C@@H](CC(C)C)NC(=O)[C@H](CCCN)NC(=O)[C@H](C(C)C)NC(=O)[C@H](Cc3ccc(-c4ccccc4)cc3)NC(=O)[C@H](C(C)C)NC2=O)c1` [Compound 2009] ({CH2CO}-[Dap]Y(Carboxymethyl)D[Phe(3-Me)]V[Bip]V[Orn][dL][Dab]LV[dS]CK[Aun]-OH; thioether N-14), the half-inhibitory concentration (IC50) was determined as 17.2 nM.
For `CC(C)C[C@H]1NC(=O)[C@H](CCN)NC(=O)[C@H](C(C)C)NC(=O)[C@H](Cc2ccc(-c3ccccc3)cc2)NC(=O)[C@H](C(C)C)NC(=O)[C@H](Cc2c[nH]c3ccccc23)NC(=O)[C@H](CC(=O)O)NC(=O)[C@H](Cc2ccc(OCC(=O)O)cc2)NC(=O)[C@H](Cc2ccsc2)NC(=O)CSC[C@@H](C(=O)N[C@H](CC(N)=O)C(=O)NCCCCCCCCCCC(=O)O)NC(=O)[C@H](CCCCN)NC(=O)[C@H](C(C)C)NC(=O)[C@H](CC2CCCCC2)NC(=O)[C@H](CCN)NC1=O` [Compound 3286] ({CH2CO}-[3Thi]Y(Carboxymethyl)DWV[Bip]V[Dab][dL][Dab][Cha]VKC[dN][Aun]-OH; thioether N-14) the value was 8.3 nM; for `CC(C)C[C@H]1NC(=O)[C@H](CCCN)NC(=O)[C@H](C(C)C)NC(=O)[C@H](Cc2ccc(-c3ccccc3)cc2)NC(=O)[C@H](C(C)C)NC(=O)[C@H](Cc2c[nH]c3ccccc23)NC(=O)[C@H](CC(=O)O)NC(=O)[C@H](Cc2ccc(OCC(=O)O)cc2)NC(=O)[C@H](C(C)O)NC(=O)CSC[C@@H](C(=O)N[C@@H](CCN)C(=O)NCCOCCOCC(=O)N[C@@H](CCC(=O)NCCCCCCCCCCC(=O)O)C(=O)O)NC(=O)[C@H](CCCCN)NC(=O)[C@H](C(C)O)NC(=O)[C@H](CC2CCCCC2)NC(=O)[C@H](CCN)NC1=O` (stereo partly drawn) [Compound 3663] ({CH2CO}-[Thr(3ξ)]Y(Carboxymethyl)DWV[Bip]V[Orn][dL][Dab][Cha][Thr(3ξ)]KC[Dab][AEEA][γGlu][Aun]-OH; thioether N-14), 15.3 nM; for `Cc1cccc(C[C@@H]2NC(=O)[C@H](CC(=O)O)NC(=O)[C@H](Cc3ccc(OCC(=O)O)cc3)NC(=O)[C@H](Cc3cccs3)NC(=O)CSC[C@@H](C(=O)N[C@@H](CCN)C(=O)NCCCCCCCCCCC(=O)O)NC(=O)[C@H](CO)NC(=O)[C@H](C(C)(C)O)NC(=O)[C@H](CC3CCCCC3)NC(=O)[C@H](CCN)NC(=O)[C@@H](CC(C)C)NC(=O)[C@H](CCCN)NC(=O)[C@H](Cc3ccc(OCC(=O)O)cc3)NC(=O)[C@H](Cc3ccc(-c4ccccc4)cc3)NC(=O)[C@H](Cc3ccc(OCC(=O)O)cc3)NC2=O)c1` [Compound 2182] ({CH2CO}-[2Thi]Y(Carboxymethyl)D[Phe(3-Me)]Y(Carboxymethyl)[Bip]Y(Carboxymethyl)[Orn][dL][Dab][Cha][Val(3-OH)]SC[Dab][Aun]-OH; thioether N-14), 15.6 nM.
As for `Cc1cccc(C[C@@H]2NC(=O)[C@H](CC(=O)O)NC(=O)[C@H](Cc3ccc(OCC(=O)O)cc3)NC(=O)[C@H](CN)NC(=O)CSC[C@@H](C(=O)N[C@@H](CCN)C(=O)NCCOCCOCC(=O)NCCCCCCCCCCC(=O)O)NC(=O)[C@H](CCCN)NC(=O)[C@H](C(C)C)NC(=O)[C@H](CC3CCCCC3)NC(=O)[C@H](CCN)NC(=O)[C@@H](CC(C)C)NC(=O)[C@H](CCCN)NC(=O)[C@H](Cc3ccc(O)cc3)NC(=O)[C@H](Cc3ccc(-c4ccccc4)cc3)NC(=O)[C@H](Cc3cc(F)c(O)c(F)c3)NC2=O)c1` [Compound 2076] ({CH2CO}-[Dap]Y(Carboxymethyl)D[Phe(3-Me)][Tyr(3,5-F2)][Bip]Y[Orn][dL][Dab][Cha]V[Orn]C[Dab][AEEA][Aun]-OH; thioether N-14), the 50% inhibitory concentration (IC50) turned out to be 8.4 nM.
Then `CC(C)C[C@H]1NC(=O)[C@H](CCCN)NC(=O)[C@H](C(C)C)NC(=O)[C@H](Cc2ccc(-c3ccccc3)cc2)NC(=O)[C@H](C(C)C)NC(=O)[C@H](Cc2c[nH]c3ccccc23)NC(=O)[C@H](CC(=O)O)NC(=O)[C@H](Cc2ccc(OCC(=O)O)cc2)NC(=O)[C@H](CN)NC(=O)CSC[C@@H](C(=O)N[C@@H](CCN)C(=O)NCCOCCOCC(=O)NCCCCCCCCCCC(=O)O)NC(=O)[C@H](CCCCN)NC(=O)[C@H](C(C)C)NC(=O)[C@H](CC2CCCCC2)NC(=O)[C@H](CCN)NC1=O` [Compound 2549] ({CH2CO}-[Dap]Y(Carboxymethyl)DWV[Bip]V[Orn][dL][Dab][Cha]VKC[Dab][AEEA][Aun]-OH; thioether N-14), with 9.4 nM; and `Cc1cccc(C[C@@H]2NC(=O)[C@H](CC(=O)O)NC(=O)[C@H](Cc3ccncc3)NC(=O)[C@H](Cc3ccc(OCC(=O)O)cc3)NC(=O)CSC[C@@H](C(=O)NCCOCCOCC(=O)N[C@@H](CCCCN)C(=O)NCCCCCCCCCCC(=O)O)NC(=O)[C@H]([C@@H](C)O)NC(=O)[C@H](C(C)C)NC(=O)[C@H](CC3CCCCC3)NC(=O)[C@H](CCN)NC(=O)[C@@H](CC(C)C)NC(=O)[C@H](CCCN)NC(=O)[C@H](C(C)C)NC(=O)[C@H](Cc3ccc(-c4ccccc4)cc3)NC(=O)[C@H](C(C)C)NC2=O)c1` [Compound 1172] ({CH2CO}-Y(Carboxymethyl)[4Pal]D[Phe(3-Me)]V[Bip]V[Orn][dL][Dab][Cha]VTC[AEEA]K[Aun]-OH; thioether N-14), with 25 nM; and `Cc1cccc(C[C@@H]2NC(=O)[C@H](CC(=O)O)NC(=O)[C@H](Cc3ccc(OCC(=O)O)cc3)NC(=O)[C@H](CCN)NC(=O)CSC[C@@H](C(=O)N[C@@H](CCN)C(=O)NCCOCCOCC(=O)NCCOCCOCC(=O)NCCCCCCCCCCCCC(=O)O)NC(=O)[C@H](CCC(=O)O)NC(=O)[C@H](C(C)(C)O)NC(=O)[C@H](CC3CCCCC3)NC(=O)[C@H](CCN)NC(=O)[C@@H](CC(C)C)NC(=O)[C@H](CCCN)NC(=O)[C@H](Cc3ccc(OCC(=O)O)cc3)NC(=O)[C@H](Cc3ccc(-c4ccccc4)cc3)NC(=O)[C@H](Cc3ccc(OCC(=O)O)cc3)NC2=O)c1` [Compound 3758] ({CH2CO}-[Dab]Y(Carboxymethyl)D[Phe(3-Me)]Y(Carboxymethyl)[Bip]Y(Carboxymethyl)[Orn][dL][Dab][Cha][Val(3-OH)]EC[Dab][AEEA][AEEA]-{NH(CH2)12COOH}; thioether N-14), with 19 nM.
Then `CC(C)C[C@H]1NC(=O)[C@H](CCCN)NC(=O)[C@H](C(C)C)NC(=O)[C@H](Cc2ccc(-c3ccccc3)cc2)NC(=O)[C@H](C(C)C)NC(=O)[C@H](Cc2c[nH]c3ccccc23)NC(=O)[C@H](CC(=O)O)NC(=O)[C@H](Cc2ccc(OCC(=O)O)cc2)NC(=O)[C@H](CN)NC(=O)CSC[C@@H](C(=O)N[C@@H](CCCN)C(=O)NCCCCCCCCCCC(=O)O)NC(=O)[C@H]([C@@H](C)O)NC(=O)[C@H](C(C)C)NC(=O)[C@H](CC2CCCCC2)NC(=O)[C@H](Cc2c[nH]cn2)NC1=O` [Compound 1076] ({CH2CO}-[Dap]Y(Carboxymethyl)DWV[Bip]V[Orn][dL]H[Cha]VTC[Orn][Aun]-OH; thioether N-14), with 44.1 nM.
